Tested on: TC71 Ewing sarcoma viability, CellTiter-Glo ATP, 72 h
Assay: TC71 Ewing sarcoma cell killing, confirmation, luminescence, cherry-picked samples, retest (AID 720570)

Structure (SMILES) | AC35 [µM]
O=C(CCc1ccccc1)NC(c1cccs1)c1cc(Cl)c2cccnc2c1O (centres undefined) | 2.81
CC(=O)OC1CC(OC2C(O)CC(OC3C(O)CC(OC4CCC5(C)C(CCC6C5CCC5(C)C(C7=CC(=O)OC7)C(O)CC65O)C4)OC3C)OC2C)OC(C)C1OC1OC(CO)C(O)C(O)C1O (centres undefined) | 2.35
C[C@H](CO)N1C[C@H](C)[C@H](CN(C)Cc2ccc(C(F)(F)F)cc2)Oc2ccc(NC(=O)CCCCCC(=O)Nc3ccccc3N)cc2CC1=O | 11.5
COc1ccc(C2=Nn3c(nnc3-c3ccccc3OC)SC2)cc1OCC1CC1 | 6.68
C[C@H]1CN([C@@H](C)CO)C(=O)Cc2cc(NC(=O)CCC(F)(F)F)ccc2O[C@H]1CN(C)Cc1ccc(C(=O)Nc2ccccc2N)cc1 | 9.19
O=C(c1nnsc1S(=O)c1ccc(Cl)cc1)N1CCOCC1 (centres undefined) | 21.9
CC1(C)N=C(N)N=C(N)N1c1ccc(CCCCc2ccccc2)cc1 | 1.39
COC1C(C)OC(OC2CC(C)(O)Cc3cc4c(c(O)c32)C(=O)c2c(O)cc3c(c2C4=O)OC2OC3(C)C(O)C(N(C)C)C2O)C(OC)C1(C)OC (centres undefined) | 0.169
C(=NNc1ccc2ccccc2n1)c1ccccn1 | 1.55
O=C1NC(=O)N(c2ccccc2)C(=O)/C1=C\C=C\c1ccccc1 | 12.6
Cc1ccc(S(=O)(=O)Nc2ccc3c(c2)C(=O)N([C@H](C)CO)C[C@H](C)[C@@H](CN(C)Cc2ccc(C(F)(F)F)cc2)OCCCC[C@H](C)O3)cc1 | 12.1
COc1cccc(OC)c1C(=O)Nc1cc(C)nn1-c1nc2ccccc2[nH]1 | 18.2
O=C(O)c1ccc(N/N=C/c2c(F)cccc2Cl)cc1 | 3.26
C[C@H]1CN([C@@H](C)CO)C(=O)Cc2cc(NC(=O)C3CC3)ccc2O[C@H]1CN(C)S(=O)(=O)c1ccc(Cl)cc1 | 17.3
C[C@H](CO)N1C[C@H](C)[C@H](CN(C)Cc2ccccc2)Oc2ccc(NC(=O)CCCCCC(=O)Nc3ccccc3N)cc2CC1=O | 15.1
C[C@@H]1CN([C@H](C)CO)S(=O)(=O)c2ccc(C#CC(C)(C)O)cc2O[C@H]1CN(C)Cc1ccc(-c2ccccc2)cc1 | 3.05
O=c1c(Cl)cc(Cl)nn1-c1ccccc1 | 13
O=C1NC(=S)NC(=O)C1=Cc1cccn1-c1ccc(O)cc1 | 22.2
O=C(Nc1ccc2c(c1)OCO2)N1C[C@@H]2N[C@H](C1)C2c1ccc(C=Cc2ccccc2)cc1 (some centres undefined) | 12.8
Cc1ccc(S(=O)(=O)Nc2ccc3c(c2)C(=O)N([C@@H](C)CO)C[C@@H](C)[C@H](CN(C)Cc2ccc(C(F)(F)F)cc2)OCCCC[C@H](C)O3)cc1 | 11.7
C[C@]12CC[C@H]3[C@@H](CC[C@]4(O)C[C@@H](O)CC[C@]34C=O)[C@@]1(O)CC[C@@H]2C1=CC(=O)OC1 | 2.24

Structure (SMILES) | AC35 [µM]
COC1C(O)C(C)OC(OC2CCC3(C)C(CCC4C3C(O)CC3(C)C(C5=CC(=O)OC5)CCC43O)C2)C1O (centres undefined) | 0.699
CC(=O)ON=C1C=CC(=C(C#N)c2ccccc2)C=C1 | 6.03
C[C@@H]1CN([C@H](C)CO)C(=O)c2cc(N(C)C)ccc2O[C@H]1CN(C)Cc1ccc(C(=O)Nc2ccccc2N)cc1 | 12.5
Cc1[nH]c(=S)sc1Cc1ccc(Cl)c(Cl)c1 | 0.898
COc1cccc(O)c1CN1CCC(C(=O)Nc2ccc(-c3cccc(C)c3)cc2)CC1 | 20.7
C[C@@H]1O[C@@H](O[C@H]2C[C@@H](O)[C@]3(CO)[C@@H]4C(CC[C@]3(O)C2)[C@@]2(O)CC[C@H](C3COC(=O)C3)[C@@]2(C)C[C@H]4O)[C@H](O)[C@H](O)[C@H]1O (some centres undefined) | 6.91
COc1ccc(-c2cc(CNc3nc(NC(C)C)nc4cc(-c5ccccc5)sc34)on2)cc1 | 12.1
Cc1cccc(N2CCN(C3C(=O)Nc4ccccc4-n4nnnc43)CC2)c1C (centres undefined) | 13.9
CC(=O)Nc1cccc(-c2ccnc3c2CC(C)(C(=O)NCc2ccc(N(C)C)cc2)O3)c1 (centres undefined) | 7.01
COc1ccccc1NC(=O)N1CCCCN2[C@H](CO)[C@H](c3ccc(-c4cccc(C)c4)cc3)[C@H]2C1 | 10.9
CN=c1scc(-c2ccccc2F)n1/N=C/c1ccc(O)c(O)c1O | 16.1
Cc1cc(C(=O)Nc2ccc3c(c2)C(=O)N(C)[C@@H]2CC[C@@H](CC(=O)NCc4ccc(-c5ccccc5)cc4)O[C@H]2CO3)no1 | 6.73
Cc1ccc2c(=O)n3c(nc2c1)C(Cc1ccc(O)cc1)NC(=O)c1cc2ccccc2cc1-3 (centres undefined) | 9.76
CCc1ccc2oc(C(=O)N3CCN(c4ccccc4OC)CC3)cc(=O)c2c1 | 12.6
CCOc1ccc(OCc2ccc(C(=O)NN=Cc3ccc[nH]3)cc2)cc1 | 0.504
O=c1ccc2[n+]([O-])c3ccc(O)cc3oc-2c1 | 9.82
O=C(NC[C@@H]1N[C@@H](CO)[C@H]1c1ccc(C2=CCCCC2)cc1)c1cccc(F)c1 | 12.3
O=c1[nH]c(=O)n([C@H]2C[C@H](O)[C@@H](CO)O2)cc1C(F)(F)F | 2.91
N#C[C@@H]1[C@H](c2ccc(C#Cc3ccc(F)cc3)cc2)[C@@H](CO)N1C(=O)Nc1ccc(F)cc1 | 10.9
CCOc1cc(/C=N/Nc2cc(C)nc(-n3nc(C)cc3C)n2)ccc1O | 7.76
OC[C@H]1O[C@@H](n2cnc3c(NCc4ccco4)ncnc32)[C@H](O)[C@@H]1O | 8.41

Structure (SMILES) | AC35 [µM]
C[C@H](CO)N1C[C@H](C)[C@H](CN(C)Cc2ccc(Oc3ccccc3)cc2)Oc2ccc(NC(=O)CCCCCC(=O)Nc3ccccc3N)cc2CC1=O | 11.5
C[C@H](CO)N1C[C@H](C)[C@H](CN(C)Cc2ccc(C(=O)Nc3ccccc3N)cc2)Oc2c(cccc2N(C)C)C1=O | 17.1
N#C[C@H]1[C@H](c2ccc(-c3ccccc3F)cc2)[C@@H](CO)N1C(=O)Cc1ccccc1 | 6.75
COc1ccc(CC(N)c2csc(NC(=O)Nc3cccc(C(F)(F)F)c3)n2)cc1 (centres undefined) | 19.1
CCN1CCS/C1=C\C=C\C1=[N+](CC)CCS1 | 9.96
Cc1cc(-c2nc3cc(F)ccc3s2)ccc1N | 14.2
C[C@@H]1CN([C@@H](C)CO)C(=O)c2cccc(NS(=O)(=O)c3ccc(F)cc3)c2O[C@@H]1CN(C)Cc1ccc(C(=O)Nc2ccccc2N)cc1 | 8.22
C[C@H](CO)N1C[C@H](C)[C@H](CN(C)Cc2ccc(C(=O)Nc3ccccc3N)cc2)Oc2ccc(N(C)C)cc2C1=O | 11.9
C[C@@H]1CCCCO[C@H](CN(C)Cc2ccc(C(=O)Nc3ccccc3N)cc2)[C@@H](C)CN([C@@H](C)CO)C(=O)c2cc(NS(=O)(=O)c3ccc(Cl)cc3)ccc2O1 | 13.6
CN=c1scc(-c2cccs2)n1/N=C/c1ccccc1O | 21.7
CC(=O)OC1CC(OC2C(O)CC(OC3C(O)CC(OC4CCC5(C)C(CCC6C5CCC5(C)C(C7=CC(=O)OC7)CCC65O)C4)OC3C)OC2C)OC(C)C1OC1OC(CO)C(O)C(O)C1O (centres undefined) | 0.258
C=C(C(=O)c1ccccc1)C(C)C(=C)C(=O)c1ccccc1 | 11.1
COc1ccc(S(=O)(=O)N2CC[C@@H]3[C@@H](CO)Nc4ccc(-c5ccc(C#N)cc5)cc4[C@@H]32)cc1 | 2.52
CC(=NNc1ccc2ccccc2n1)c1ccccn1 | 1.57
C[C@@H]1CN([C@@H](C)CO)C(=O)Cc2cc(NS(=O)(=O)c3cccs3)ccc2O[C@H]1CN(C)Cc1ccc(Cl)c(Cl)c1 | 12.3
O=c1[nH]c(=O)n(C2C[C@H](O)[C@@H](CO)O2)cc1C(F)(F)F (some centres undefined) | 2.59
COc1cc(-c2noc(C)c2C#Cc2nccn2C)cc(OC)c1OC | 13.1
COc1ccc([Si](C)(C)[C@H]2[C@H](CCO)O[C@@]3(C(=O)N(c4ccccc4)c4ccccc43)[C@@H]2C)cc1 | 12.8
CCOc1ccc(N=Nc2ccc(O)c3ncccc23)cc1 | 2.8
Cc1c(Cc2ccc3c(c2)OCO3)sc(NC(=O)C(C)(C)C)c1C#N | 13.2
C[C@H]1O[C@@H](O[C@H]2[C@@H](O)C[C@H](O[C@H]3[C@@H](O)C[C@H](O[C@H]4CC[C@@]5(C)[C@H](CC[C@@H]6[C@@H]5C[C@@H](O)[C@]5(C)[C@@H](C7=CC(=O)OC7)CC[C@]65O)C4)O[C@@H]3C)O[C@@H]2C)C[C@H](O)[C@@H]1O | 0.283

Structure (SMILES) | AC35 [µM]
Oc1[nH]c2ccc(Br)cc2c1N=NC(=S)N1CCOCC1 | 2.87
O=C(C[C@@H]1C[C@H]2c3cc(NS(=O)(=O)c4ccc(F)cc4)ccc3O[C@H]2[C@H](CO)O1)NCc1ccc(-c2ccccc2)cc1 | 1.91
C[C@@H]1CN([C@H](C)CO)C(=O)c2cc(NC(=O)CCCCCC(=O)Nc3ccccc3N)ccc2O[C@@H]1CN(C)Cc1ccc(Cl)c(Cl)c1 | 12.8
Cc1cc(-c2nc3ccccc3s2)ccc1N | 17.7
C[C@@H]1CN([C@H](C)CO)C(=O)c2cc(C#CCN(C)C)cnc2O[C@H]1CN(C)Cc1ccc(-c2ccccc2)cc1 | 22.2
CC[C@@H]1C[C@H]2CC[C@H](O2)[C@H](C)C(=O)O[C@@H](C)C[C@@H]2CC[C@@H](O2)[C@@H](C)C(=O)O[C@H](C)C[C@H]2CC[C@H](O2)[C@H](C)C(=O)O[C@@H](C)C[C@@H]2CC[C@@H](O2)[C@@H](C)C(=O)O1 | 0.0639
CN(C)CC1CCC/C(=C\c2ccc(OC(=O)c3ccc(Cl)cc3)cc2)C1=O (centres undefined) | 3.4
N#CC1=C(N)Oc2cc(N)ccc2C1c1cccc(Br)c1 (centres undefined) | 0.845
COc1ccc(OC)c(Cc2cnc3nc(N)nc(N)c3c2C)c1 | 0.0778
C[C@H](CO)N1C[C@H](C)[C@@H](CN(C)Cc2ccc(C(F)(F)F)cc2)OCCCC[C@H](C)Oc2ccc(NS(=O)(=O)c3ccc(F)cc3)cc2C1=O | 17.3
COc1ccc(C2=Nn3c([n+](C)c4ccccc43)SC2)cc1 | 19.6
COc1cc2c(cc1NC(=O)CN(C)Cc1ccc(OC)c(OC)c1)oc1ccccc12 | 14.5
CN1C2CCC1/C(=C/c1ccccn1)C(=O)/C2=C\c1ccccn1 | 1.43
CC1(C)Oc2cc3oc(-c4cc(O)cc(O)c4)cc3cc2CC1O (centres undefined) | 12.5
c1ccc(Nc2nnc(-c3ccc4c(c3)OCO4)o2)cc1 | 12
O=C1CCCC2=C1C(c1ccccn1)Nc1ccc(C(=O)c3ccccc3)cc1N2 (centres undefined) | 17.4
O=c1[nH]c(/C=C2\C=Nc3ccccc32)c(O)n1Cc1ccccc1F | 20.7
CCCCC[C@H](C)N1C[C@H](COCc2ccccc2)Oc2cc(N3CC[C@@H](N(C)C)C3)ccc2S1(=O)=O | 14.2
C[C@@H]1O[C@@H](O[C@@H]2C=C3CCC4C(CC[C@]5(C)[C@@H](c6ccc(=O)oc6)CC[C@]45O)[C@@]3(C)CC2)[C@H](O)[C@H](O)[C@H]1O (some centres undefined) | 0.0271
C[C@]12CC[C@H](O)C[C@H]1CC[C@@H]1[C@@H]2CC[C@]2(C)[C@@H](C3=CC(=O)OC3)CC[C@]12O | 2.11
N#C[C@H]1[C@H](c2ccc(-c3ccccc3F)cc2)[C@@H](CO)N1C(=O)c1ccccn1 | 13.9
